Source: ChEMBL document CHEMBL1201861, “Genomics of Drug Sensitity in Cancer screening data, Wellcome Trust Sanger Institute”

Each molecule was assayed on NCI-H810 (assay: cells). Settings: Homo sapiens.
Format: functional, cell-based
Description: SANGER: Inhibition of human NCI-H810 cell growth in a cell viability assay.
With OC[C@H](Cc1ccccc1)Nc1nc(Oc2ccc3c(c2)CCC3)nc2c1ncn2Cc1ccc(-c2ccccc2)cc1 the IC50 was 3.89 µM.

What follows are molecules tested on MEL-HO (assay: cells). Settings: Homo sapiens.
Format: functional, cell-based
Description: SANGER: Inhibition of human MEL-HO cell growth in a cell viability assay.
Molecule OC[C@H](Cc1ccccc1)Nc1nc(Oc2ccc3c(c2)CCC3)nc2c1ncn2Cc1ccc(-c2ccccc2)cc1 has an IC50 of 8.39 µM.

What follows are molecules tested on T-24 (assay: cells). Settings: Homo sapiens.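 Further: growth inhibition of T-24 cells, read out with a cell viability assay.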
Format: functional, cell-based
Description: SANGER: Inhibition of human T-24 cell growth in a cell viability assay.
In the case of OC[C@H](Cc1ccccc1)Nc1nc(Oc2ccc3c(c2)CCC3)nc2c1ncn2Cc1ccc(-c2ccccc2)cc1, the IC50 is reported as > 10.2 µM.

The molecules below were run on CAL-148 (assay: cells). Settings: Homo sapiens, CAL-148.
Format: functional, cell-based, Homo sapiens
Description: SANGER: Inhibition of human CAL-148 cell growth in a cell viability assay.
OC[C@H](Cc1ccccc1)Nc1nc(Oc2ccc3c(c2)CCC3)nc2c1ncn2Cc1ccc(-c2ccccc2)cc1 was tested, and the IC50 was > 10.2 µM.

What follows are molecules tested on ARH-77 (assay: cells). Settings: Homo sapiens, ARH-77.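 Further: growth inhibition of ARH-77 cells, read out by a cell viability assay.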
Format: functional, cell-based, Homo sapiens
Description: SANGER: Inhibition of human ARH-77 cell growth in a cell viability assay.
With OC[C@H](Cc1ccccc1)Nc1nc(Oc2ccc3c(c2)CCC3)nc2c1ncn2Cc1ccc(-c2ccccc2)cc1 the IC50 was > 10.2 µM.

What follows are molecules tested on UO-31 (assay: cells). Settings: Homo sapiens.
Format: functional, cell-based
Description: SANGER: Inhibition of human U031 cell growth in a cell viability assay.
For OC[C@H](Cc1ccccc1)Nc1nc(Oc2ccc3c(c2)CCC3)nc2c1ncn2Cc1ccc(-c2ccccc2)cc1, the IC50 was > 10.2 µM.

These molecules were tested on SNU-16 (assay: cells). Settings: Homo sapiens, SNU-16.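 Further: growth inhibition of human SNU-16 cells, determined with a cell viability readout.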
Format: functional, cell-based, Homo sapiens
Description: SANGER: Inhibition of human NCI-SNU-16 cell growth in a cell viability assay.
In the case of OC[C@H](Cc1ccccc1)Nc1nc(Oc2ccc3c(c2)CCC3)nc2c1ncn2Cc1ccc(-c2ccccc2)cc1, the IC50 is reported as > 10.2 µM.

Each molecule was assayed on IM-9 (assay: SANGER: Inhibition of human IM-9 cell growth in a cell viability assay.). Settings: Homo sapiens, IM-9.
Format: functional, cell-based
In the case of OC[C@H](Cc1ccccc1)Nc1nc(Oc2ccc3c(c2)CCC3)nc2c1ncn2Cc1ccc(-c2ccccc2)cc1, the IC50 is reported as > 10.2 µM.

Each molecule was assayed on HTC-C3 (assay: cells). Settings: Homo sapiens.
Format: functional, cell-based
Description: SANGER: Inhibition of human HTC-C3 cell growth in a cell viability assay.
With OC[C@H](Cc1ccccc1)Nc1nc(Oc2ccc3c(c2)CCC3)nc2c1ncn2Cc1ccc(-c2ccccc2)cc1 the IC50 was > 10.2 µM.

These molecules were tested on NY (assay: cells). Settings: Homo sapiens.
Format: functional, cell-based
Description: SANGER: Inhibition of human NY cell growth in a cell viability assay.
With OC[C@H](Cc1ccccc1)Nc1nc(Oc2ccc3c(c2)CCC3)nc2c1ncn2Cc1ccc(-c2ccccc2)cc1 the IC50 was > 10.2 µM.

The molecules below were run on MKN-1 (assay: cells). Settings: Homo sapiens.
Format: functional, cell-based
Description: SANGER: Inhibition of human MKN1 cell growth in a cell viability assay.
For OC[C@H](Cc1ccccc1)Nc1nc(Oc2ccc3c(c2)CCC3)nc2c1ncn2Cc1ccc(-c2ccccc2)cc1, the IC50 was > 10.2 µM.

Each molecule was assayed on NCI-H510A (assay: cells). Settings: Homo sapiens, NCI-H510A.
Format: functional, cell-based, Homo sapiens
Description: SANGER: Inhibition of human NCI-H510A cell growth in a cell viability assay.
For OC[C@H](Cc1ccccc1)Nc1nc(Oc2ccc3c(c2)CCC3)nc2c1ncn2Cc1ccc(-c2ccccc2)cc1, the IC50 was > 10.2 µM.

Each molecule was assayed on EFO-27 (assay: cells). Settings: Homo sapiens.
Format: functional, cell-based
Description: SANGER: Inhibition of human EFO-27 cell growth in a cell viability assay.
With OC[C@H](Cc1ccccc1)Nc1nc(Oc2ccc3c(c2)CCC3)nc2c1ncn2Cc1ccc(-c2ccccc2)cc1 the IC50 was > 10.2 µM.

The molecules below were run on SW1463 (assay: cells). Settings: Homo sapiens.
Format: functional, cell-based
Description: SANGER: Inhibition of human SW1463 cell growth in a cell viability assay.
For OC[C@H](Cc1ccccc1)Nc1nc(Oc2ccc3c(c2)CCC3)nc2c1ncn2Cc1ccc(-c2ccccc2)cc1, the IC50 was > 10.2 µM.

Each molecule was assayed on NCI-H522 (assay: cells). Settings: Homo sapiens.
Format: functional, cell-based
Description: SANGER: Inhibition of human NCI-H522 cell growth in a cell viability assay.
In the case of OC[C@H](Cc1ccccc1)Nc1nc(Oc2ccc3c(c2)CCC3)nc2c1ncn2Cc1ccc(-c2ccccc2)cc1, the IC50 is reported as > 10.2 µM.

What follows are molecules tested on HCT-15 (assay: cells). Settings: Homo sapiens.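 Further: cell viability readout, IC50 reflecting suppression of HCT-15 cell growth.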
Format: functional, cell-based
Description: SANGER: Inhibition of human HCT-15 cell growth in a cell viability assay.
OC[C@H](Cc1ccccc1)Nc1nc(Oc2ccc3c(c2)CCC3)nc2c1ncn2Cc1ccc(-c2ccccc2)cc1 gave an IC50 of 2.49 µM.

These molecules were tested on CAPAN-1 (assay: cells). Settings: Homo sapiens.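 Further: growth suppression of CAPAN-1 cells, read out by a cell viability assay.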
Format: functional, cell-based
Description: SANGER: Inhibition of human CAPAN-1 cell growth in a cell viability assay.
In the case of OC[C@H](Cc1ccccc1)Nc1nc(Oc2ccc3c(c2)CCC3)nc2c1ncn2Cc1ccc(-c2ccccc2)cc1, the IC50 is reported as > 10.2 µM.

Each molecule was assayed on HLE (assay: cells). Settings: Homo sapiens.
Format: functional, cell-based
Description: SANGER: Inhibition of human HLE cell growth in a cell viability assay.
Work on OC[C@H](Cc1ccccc1)Nc1nc(Oc2ccc3c(c2)CCC3)nc2c1ncn2Cc1ccc(-c2ccccc2)cc1 yielded an IC50 of 5.66 µM.

What follows are molecules tested on HGC-27 (assay: cells). Settings: Homo sapiens.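 Further: growth inhibition of human HGC-27 cells, read out in a cell viability assay.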
Format: functional, cell-based
Description: SANGER: Inhibition of human HGC-27 cell growth in a cell viability assay.
OC[C@H](Cc1ccccc1)Nc1nc(Oc2ccc3c(c2)CCC3)nc2c1ncn2Cc1ccc(-c2ccccc2)cc1 gave an IC50 of 2.31 µM.

The molecules below were run on NCI-H1703 (assay: cells). Settings: Homo sapiens.
Format: functional, cell-based
Description: SANGER: Inhibition of human NCI-H1703 cell growth in a cell viability assay.
In the case of OC[C@H](Cc1ccccc1)Nc1nc(Oc2ccc3c(c2)CCC3)nc2c1ncn2Cc1ccc(-c2ccccc2)cc1, the IC50 is reported as > 10.2 µM.

What follows are molecules tested on SIMA (assay: cells). Settings: Homo sapiens, SIMA.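 Further: growth inhibition of SIMA cells, measured with a cell viability readout.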
Format: functional, cell-based, Homo sapiens
Description: SANGER: Inhibition of human SIMA cell growth in a cell viability assay.
OC[C@H](Cc1ccccc1)Nc1nc(Oc2ccc3c(c2)CCC3)nc2c1ncn2Cc1ccc(-c2ccccc2)cc1 was tested, and the IC50 was > 10.2 µM.

The molecules below were run on MDA-MB-134-VI (assay: cells). Settings: Homo sapiens, MDA-MB-134-VI.
Format: functional, cell-based, Homo sapiens
Description: SANGER: Inhibition of human MDA-MB-134-VI cell growth in a cell viability assay.
With OC[C@H](Cc1ccccc1)Nc1nc(Oc2ccc3c(c2)CCC3)nc2c1ncn2Cc1ccc(-c2ccccc2)cc1 the IC50 was > 10.2 µM.

These molecules were tested on RD (assay: cells). Settings: Homo sapiens.
Format: functional, cell-based
Description: SANGER: Inhibition of human RD cell growth in a cell viability assay.
With OC[C@H](Cc1ccccc1)Nc1nc(Oc2ccc3c(c2)CCC3)nc2c1ncn2Cc1ccc(-c2ccccc2)cc1 the IC50 was > 10.2 µM.

Each molecule was assayed on Calu-3 (assay: cells). Settings: Homo sapiens.
Format: functional, cell-based
Description: SANGER: Inhibition of human Calu-3 cell growth in a cell viability assay.
With OC[C@H](Cc1ccccc1)Nc1nc(Oc2ccc3c(c2)CCC3)nc2c1ncn2Cc1ccc(-c2ccccc2)cc1 the IC50 was > 10.2 µM.

What follows are molecules tested on Raji (assay: cells). Settings: Homo sapiens, Raji.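 Further: cell viability assay measuring inhibition of Raji cell growth.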
Format: functional, cell-based, Homo sapiens
Description: SANGER: Inhibition of human Raji cell growth in a cell viability assay.
For OC[C@H](Cc1ccccc1)Nc1nc(Oc2ccc3c(c2)CCC3)nc2c1ncn2Cc1ccc(-c2ccccc2)cc1, the IC50 was > 10.2 µM.

What follows are molecules tested on HN (assay: cells). Settings: Homo sapiens.
Format: functional, cell-based
Description: SANGER: Inhibition of human HN cell growth in a cell viability assay.
For OC[C@H](Cc1ccccc1)Nc1nc(Oc2ccc3c(c2)CCC3)nc2c1ncn2Cc1ccc(-c2ccccc2)cc1, the IC50 was 8.17 µM.

What follows are molecules tested on SW780 (assay: cells). Settings: Homo sapiens.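 Further: growth inhibition of the cells, read out with a cell viability assay.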
Format: functional, cell-based
Description: SANGER: Inhibition of human SW780 cell growth in a cell viability assay.
In the case of OC[C@H](Cc1ccccc1)Nc1nc(Oc2ccc3c(c2)CCC3)nc2c1ncn2Cc1ccc(-c2ccccc2)cc1, the IC50 is reported as > 10.2 µM.

These molecules were tested on MC-IXC (assay: cells). Settings: Homo sapiens.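 Further: growth inhibition of MC-IXC cells, read out with a cell viability assay.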
Format: functional, cell-based
Description: SANGER: Inhibition of human MC-IXC cell growth in a cell viability assay.
OC[C@H](Cc1ccccc1)Nc1nc(Oc2ccc3c(c2)CCC3)nc2c1ncn2Cc1ccc(-c2ccccc2)cc1 was tested, and the IC50 was > 10.2 µM.

Each molecule was assayed on C3A (assay: cells). Settings: Homo sapiens.
Format: functional, cell-based
Description: SANGER: Inhibition of human C3A cell growth in a cell viability assay.
OC[C@H](Cc1ccccc1)Nc1nc(Oc2ccc3c(c2)CCC3)nc2c1ncn2Cc1ccc(-c2ccccc2)cc1 was tested, and the IC50 was > 10.2 µM.
